Assay [1] deals with T1, Vascular endothelial growth factor receptor 2 (Homo sapiens, UniProt P35968). As to the kind of experiment: VEGFR2 Kinase Assay: Biochemical KDR kinase assays were performed in 96 well microtiter plates that were coated overnight with 75 ug/well of poly-Glu-Tyr (4:1) in 10 mM Phosphate Buffered Saline (PBS), pH 7.4. The coated plates were washed with 2 mls per well PBS+0.05% Tween-20 (PBS-T), blocked by incubation with PBS containing 1% BSA, then washed with 2 mls per well PBS-T prior to starting the reaction. Reactions were carried out in 100 uL reaction volumes containing 2.7 uM ATP in kinase buffer (50 mM Hepes buffer pH 7.4, 20 mM MgCl2, 0.1 mM MnCl2 and 0.2 mM Na3VO4). Test compounds were reconstituted in 100% DMSO and added to the reaction to give a final DMSO concentration of 5%. Reactions were initiated by the addition 20 ul per well of kinase buffer containing 200-300 ng purified cytoplasmic domain KDR protein (BPS Bioscience, San Diego, Calif.). Following a 15 minute incubation at 30° C., the reactions were washed 2 mls per well PBS-T. 100 ul of a monoclonal anti-phosphotyrosine antibody-peroxidase conjugate diluted 1:10,000 in PBS-T was added to the wells for 30 minutes. Following a 2 mls per well wash with PBS-Tween-20, 100 ul of 0-Phenylenediamine Dihydrochloride in phosphate-citrate buffer, containing urea hydrogen peroxide, was added to the wells for 7-10 minutes as a colorimetric substrate for the peroxidase. The reaction was terminated by the addition of 100 ul of 2.5N H2SO4 to each well and read using a microplate ELISA reader set at 492 nm.
T1 sequence (P35968 whole entry): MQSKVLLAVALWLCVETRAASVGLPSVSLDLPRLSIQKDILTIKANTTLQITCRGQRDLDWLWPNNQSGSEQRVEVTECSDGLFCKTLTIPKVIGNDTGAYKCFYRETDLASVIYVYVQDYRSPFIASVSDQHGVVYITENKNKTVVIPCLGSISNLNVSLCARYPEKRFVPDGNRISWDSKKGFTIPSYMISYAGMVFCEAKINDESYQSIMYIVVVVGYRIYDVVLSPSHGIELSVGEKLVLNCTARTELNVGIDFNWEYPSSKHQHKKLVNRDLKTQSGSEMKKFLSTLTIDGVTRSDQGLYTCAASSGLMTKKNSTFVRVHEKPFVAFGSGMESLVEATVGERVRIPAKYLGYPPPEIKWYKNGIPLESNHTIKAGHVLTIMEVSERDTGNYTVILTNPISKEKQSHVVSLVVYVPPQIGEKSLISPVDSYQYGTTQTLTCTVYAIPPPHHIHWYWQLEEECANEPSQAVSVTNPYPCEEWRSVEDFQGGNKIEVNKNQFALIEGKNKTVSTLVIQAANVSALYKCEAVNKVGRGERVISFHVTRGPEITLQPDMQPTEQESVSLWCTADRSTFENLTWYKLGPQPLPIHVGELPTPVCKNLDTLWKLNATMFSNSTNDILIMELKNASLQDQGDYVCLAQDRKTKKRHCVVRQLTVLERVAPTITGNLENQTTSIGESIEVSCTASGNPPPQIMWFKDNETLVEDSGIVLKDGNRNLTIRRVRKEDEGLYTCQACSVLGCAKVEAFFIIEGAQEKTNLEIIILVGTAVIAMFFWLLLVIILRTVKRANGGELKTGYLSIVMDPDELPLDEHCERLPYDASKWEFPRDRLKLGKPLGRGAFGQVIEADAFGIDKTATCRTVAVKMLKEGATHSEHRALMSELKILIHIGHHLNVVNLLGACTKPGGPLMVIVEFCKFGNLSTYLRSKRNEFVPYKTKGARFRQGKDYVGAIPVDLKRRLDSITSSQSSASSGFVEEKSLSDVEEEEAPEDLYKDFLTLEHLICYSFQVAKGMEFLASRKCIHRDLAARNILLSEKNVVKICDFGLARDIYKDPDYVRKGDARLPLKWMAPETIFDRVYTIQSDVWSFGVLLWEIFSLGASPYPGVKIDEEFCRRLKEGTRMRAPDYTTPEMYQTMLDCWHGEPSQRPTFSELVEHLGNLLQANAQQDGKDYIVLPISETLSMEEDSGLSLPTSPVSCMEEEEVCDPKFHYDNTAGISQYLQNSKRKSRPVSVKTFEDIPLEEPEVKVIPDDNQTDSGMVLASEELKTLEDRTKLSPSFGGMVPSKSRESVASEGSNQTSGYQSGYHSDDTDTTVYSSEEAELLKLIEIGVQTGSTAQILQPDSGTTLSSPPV

Assay [2] concerns the target T1, Vascular endothelial growth factor receptor 2. In words: (§1) VEGFR2 Cellular Assay: Automated FLIPR (Fluorometric Imaging Plate Reader) technology was used to screen for inhibitors of VEGF induced increases in intracellular calcium levels in fluorescent dye loaded endothelial cells. HUVEC (human umbilical vein endothelial cells) (Clonetics) were seeded in 384-well fibronectin coated black-walled plates overnight @ 37° C./5% CO2. Cells were loaded with calcium indicator Fluo-4 for 45 minutes at 37° C. Cells were washed 2 times (Elx405, Biotek Instruments) to remove extracellular dye. For screening, cells were pre-incubated with test agents for 30 minutes, at a single concentration (10 uM) or at concentrations ranging from 0.0001 to 10.0 uM followed by VEGF165 stimulation (10 ng/mL). Changes in fluorescence at 516 nm were measured simultaneously in all 384 wells using a cooled CCD camera. Data were generated by determining max-min fluorescence levels for unstimulated, stimulated, and drug treated samples. Format: cell-based, Endothelial cell. (A change in cytosolic calcium serves as a functional read-out for many receptors and channels.)

Assay [3] deals with T2, Platelet-derived growth factor receptor beta (Homo sapiens, UniProt P09619). Described as §1, with “PDGFRbeta : Automated” for “VEGFR2 Cellular Assay: Automated”, “of PDGF-induced” for “of VEGF induced”, “cells. NHDF-Ad (Normal Human Dermal Fibroblasts, Adult; Lonza)” for “cells. HUVEC (human umbilical vein endothelial cells) (Clonetics)”, “by PDGF-BB” for “by VEGF165”, “stimulation (30” for “stimulation (10”. The assay is classed as cell-based, Endothelial cell.
T2 sequence (P09619 whole entry): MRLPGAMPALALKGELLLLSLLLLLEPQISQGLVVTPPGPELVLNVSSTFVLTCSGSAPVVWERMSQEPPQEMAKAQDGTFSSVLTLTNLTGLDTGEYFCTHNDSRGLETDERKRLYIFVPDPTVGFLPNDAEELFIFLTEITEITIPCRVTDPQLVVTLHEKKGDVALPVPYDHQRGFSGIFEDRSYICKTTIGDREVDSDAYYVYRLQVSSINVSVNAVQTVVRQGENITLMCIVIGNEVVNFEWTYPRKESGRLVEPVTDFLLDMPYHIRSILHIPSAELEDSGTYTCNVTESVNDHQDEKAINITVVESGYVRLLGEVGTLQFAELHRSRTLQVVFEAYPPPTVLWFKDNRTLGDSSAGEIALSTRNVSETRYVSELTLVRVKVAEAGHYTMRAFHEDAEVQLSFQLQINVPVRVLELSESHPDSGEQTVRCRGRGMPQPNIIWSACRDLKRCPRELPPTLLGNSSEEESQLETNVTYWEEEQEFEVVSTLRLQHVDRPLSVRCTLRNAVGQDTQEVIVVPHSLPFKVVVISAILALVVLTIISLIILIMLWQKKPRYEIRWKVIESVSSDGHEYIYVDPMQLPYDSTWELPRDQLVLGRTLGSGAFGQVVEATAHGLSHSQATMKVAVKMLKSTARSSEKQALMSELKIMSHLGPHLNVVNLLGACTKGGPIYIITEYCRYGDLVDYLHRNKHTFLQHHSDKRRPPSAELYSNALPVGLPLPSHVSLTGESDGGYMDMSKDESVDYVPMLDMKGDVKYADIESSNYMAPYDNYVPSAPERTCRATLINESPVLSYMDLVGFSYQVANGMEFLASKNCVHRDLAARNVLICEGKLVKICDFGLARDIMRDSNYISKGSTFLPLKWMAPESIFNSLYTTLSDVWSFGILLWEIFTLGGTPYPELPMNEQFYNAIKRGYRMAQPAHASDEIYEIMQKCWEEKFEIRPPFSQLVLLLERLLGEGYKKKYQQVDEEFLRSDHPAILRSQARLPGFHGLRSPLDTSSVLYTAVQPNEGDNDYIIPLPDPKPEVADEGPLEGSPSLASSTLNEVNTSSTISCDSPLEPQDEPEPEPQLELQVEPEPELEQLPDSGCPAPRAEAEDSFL

The target of assay [4] is T2, Platelet-derived growth factor receptor beta. In words: PDGFRbeta Kinase Assay: Biochemical PDGFRbeta kinase assays were performed in 96 well microtiter plates that were coated overnight with 75 ug of poly-Glu-Tyr (4:1) in 10 mM Phosphate Buffered Saline (PBS), pH 7.4. The coated plates were washed with 2 mls per well PBS+0.05% Tween-20 (PBS-T), blocked by incubation with PBS containing 1% BSA, then washed with 2 mls per wellPBS-T prior to starting the reaction. Reactions were carried out in 100 uL reaction volumes containing 36 uM ATP in kinase buffer (50 mM Hepes buffer pH 7.4, 20 mM MgCl2, 0.1 mM MnCl2 and 0.2 mM Na3VO4). Test compounds were reconstituted in 100% DMSO and added to the reaction to give a final DMSO concentration of 5%. Reactions were initiated by the addition 20 ul per well of kinase buffer containing 200-300 ng purified cytoplasmic domain PDGFR-b protein (Millipore). Following a 60 minute incubation at 30° C., the reactions were washed 2 mls per well PBS-T. 100 ul of a monoclonal anti-phosphotyrosine antibody-peroxidase conjugate diluted 1:10,000 in PBS-T was added to the wells for 30 minutes. Following a 2 mls per well wash with PBS-Tween-20, 100 ul of 0-Phenylenediamine Dihydrochloride in phosphate-citrate buffer, containing urea hydrogen peroxide, was added to the wells for 7-10 minutes as a colorimetric substrate for the peroxidase. […].

What is called IC50 is the concentration that gives 50% inhibition. As to `Cc1ccoc1C(=O)Nc1cccc(C#Cc2cncc(C(=O)N=S(C)(=O)CCCN3CCN(CCOCCO)CC3)c2)c1` (stereo not drawn), the IC50 was 9 nM in assay [1] and 10 nM in assay [2].

`Cc1ccoc1C(=O)Nc1cccc(C#Cc2cc(C(=O)N=S(C)(=O)CC(=O)N3CC[C@H](O)C3)cnc2N)c1` (stereo partly drawn): the IC50 in assay [1] was 3 nM.

`Cc1ccoc1C(=O)Nc1cccc(C#Cc2cncc(C(=O)N=S(C)(=O)CCCO)c2)c1` (stereo not drawn): the IC50 in assay [1] was 14 nM; in assay [2], 1 nM; in assay [3] it was 31 nM.

For `Cc1ccoc1C(=O)Nc1cccc(C#Cc2cncc(C(=O)N=[S@@](C)(=O)CCCO)c2)c1`, the IC50 in assay [1] came out at 3 nM; in assay [4] it was 18 nM.

The values are drawn from ChEMBL document CHEMBL3886544, “Substituted dialkyl(oxido)-lambda4-sulfanylidene nicotinamide derivatives as kinase inhibitors” (2016).
